Results: US20250332178A1, “METHODS OF TREATING MYCOBACTERIAL INFECTIONS USING TETRACYCLINE COMPOUNDS” (priority 2018, published 2025)
≈ marks a conversion by molar mass, not a printed value. Read-outs that look alike come from different tables or passages of the source.

Key:
M. smegmatis group = test: MIC (CLSI broth dilution), RGM isolates; format: cell-based; conditions: Mycolicibacterium smegmatis, read-out: MIC
M. fortuitum group = test: MIC (CLSI broth dilution), RGM isolates; format: cell-based; conditions: Mycolicibacterium fortuitum, read-out: MIC
M. arupense = test: MIC (CLSI broth dilution), slow-growing NTM isolates; format: cell-based; conditions: isolate 11, Other; read-out: MIC
M. simiae = test: as above; format: cell-based; conditions: read-out: MIC
M. chelonae = test: MIC (CLSI broth dilution), RGM isolates; format: cell-based; conditions: Mycobacteroides chelonae, read-out: MIC
M. mucogenium group = test: MIC (CLSI broth dilution), RGM isolates; format: cell-based; conditions: read-out: MIC
M. immunogenum group = test: MIC (CLSI broth dilution), RGM isolates; format: cell-based; conditions: M. immunogenum, read-out: MIC
M. abscessus complex = test: MIC (CLSI broth dilution), RGM isolates; format: cell-based; conditions: Mycobacteroides abscessus, read-out: MIC
[1] = test system: rapid-growing mycobacteria (RGM) isolates; test: MIC (CLSI broth dilution), all RGM isolates; format: cell-based, nontuberculous mycobacteria; conditions: all 50 RGM isolates
M. abscessus = conditions: strains of M. abscessus; Wallace et al.; cited from earlier work

CN(C)c1ccc(O)c2c1C[C@H]1C[C@H]3[C@H](N(C)C)C(O)=C(C(N)=O)C(=O)[C@@]3(O)C(O)=C1C2=O [minocycline]
MIC (M. smegmatis group; isolate 49, M. smegmatis group, M. goodii): ≤ 0.5 µg/mL
MIC (M. smegmatis group; isolate 50, M. smegmatis group, M. wolinskyi): ≤ 0.5 µg/mL
MIC (M. fortuitum group; isolate 23, M. fortuitum group, M. fortuitum): ≤ 0.5 µg/mL
MIC (M. fortuitum group; isolate 24, M. fortuitum group, M. fortuitum): ≤ 0.5 µg/mL
MIC (M. fortuitum group; isolate 25, M. fortuitum group, M. fortuitum): > 8 µg/mL
MIC (M. fortuitum group; isolate 26, M. fortuitum group, M. porcinum): 1 µg/mL (≈ 2.19 µM)
MIC (M. fortuitum group; isolate 27, M. fortuitum group, M. porcinum): 4 µg/mL (≈ 8.74 µM)
MIC (M. fortuitum group; isolate 28, M. fortuitum group, M. porcinum/M. boenickei): 1 µg/mL (≈ 2.19 µM)
MIC (M. fortuitum group; isolate 29, M. fortuitum group, M. porcinum/M. boenickei): 4 µg/mL (≈ 8.74 µM)
MIC (M. fortuitum group; isolate 30, M. fortuitum group, M. porcinum/M. boenickei): 8 µg/mL (≈ 17.5 µM)
MIC (M. fortuitum group; isolate 31, M. fortuitum group, M. senegalense): ≤ 0.5 µg/mL
MIC (M. fortuitum group; isolate 32, M. fortuitum group, M. senegalense): ≤ 0.5 µg/mL
MIC (M. fortuitum group; isolate 33, M. fortuitum group, M. senegalense): ≤ 0.5 µg/mL
MIC (M. fortuitum group; isolate 34, M. fortuitum group, M. senegalense): ≤ 0.5 µg/mL
MIC (M. arupense): 8 µg/mL (≈ 17.5 µM)
MIC (M. simiae; isolate 13, Other): 4 µg/mL (≈ 8.74 µM)
MIC (M. simiae; isolate 14, Other): > 8 µg/mL
MIC (M. simiae; isolate 15, Other): > 8 µg/mL
MIC (M. chelonae; isolate 18, M. chelonae): > 8 µg/mL
MIC (M. chelonae; isolate 19, M. chelonae): > 8 µg/mL
MIC (M. chelonae; isolate 20, M. chelonae): > 8 µg/mL
MIC (M. chelonae; isolate 21, M. chelonae): > 8 µg/mL
MIC (M. chelonae; isolate 22, M. chelonae): > 8 µg/mL
MIC (M. mucogenium group; isolate 39, M. mucogenicum group, M. mucogenicum): ≤ 0.5 µg/mL
MIC (M. mucogenium group; isolate 40, M. mucogenicum group, M. mucogenicum): ≤ 1 µg/mL
MIC (M. mucogenium group; isolate 41, M. mucogenicum group, M. mucogenicum): ≤ 0.5 µg/mL
MIC (M. mucogenium group; isolate 42, M. mucogenicum group, M. mucogenicum): ≤ 0.5 µg/mL
MIC (M. mucogenium group; isolate 43, M. mucogenicum group, M. phocaicum): ≤ 0.5 µg/mL
MIC (M. mucogenium group; isolate 44, M. mucogenicum group, M. phocaicum): > 8 µg/mL
MIC (M. mucogenium group; isolate 45, M. mucogenicum group, M. phocaicum): > 8 µg/mL
MIC (M. mucogenium group; isolate 46, M. mucogenicum group, M. phocaicum): 8 µg/mL (≈ 17.5 µM)
MIC (M. mucogenium group; isolate 47, M. mucogenicum group, M. phocaicum): ≤ 0.5 µg/mL
MIC (M. mucogenium group; isolate 48, M. mucogenicum group, M. phocaicum): 2 µg/mL (≈ 4.37 µM)
MIC (M. immunogenum group; isolate 35, M. immunogenum group): > 8 µg/mL
MIC (M. immunogenum group; isolate 36, M. immunogenum group): ≤ 0.5 µg/mL
MIC (M. immunogenum group; isolate 37, M. immunogenum group): > 8 µg/mL
MIC (M. immunogenum group; isolate 38, M. immunogenum group): > 8 µg/mL
MIC (M. abscessus complex; isolate 1, M. abscessus complex, erm gene type MAB30): > 8 µg/mL
MIC (M. abscessus complex; isolate 2, M. abscessus complex, erm gene type MAB30): 8 µg/mL (≈ 17.5 µM)
MIC (M. abscessus complex; isolate 3, M. abscessus complex, erm gene type MAB30): > 8 µg/mL
MIC (M. abscessus complex; isolate 4, M. abscessus complex, erm gene type massiliense): 4 µg/mL (≈ 8.74 µM)
MIC (M. abscessus complex; isolate 5, M. abscessus complex, erm gene type massiliense/subsp. abs hybrid): > 8 µg/mL
MIC (M. abscessus complex; isolate 6, M. abscessus complex, erm gene type Type 1 abscessus): > 8 µg/mL
MIC (M. abscessus complex; isolate 7, M. abscessus complex, erm gene type Type 1 abscessus): 8 µg/mL (≈ 17.5 µM)
MIC (M. abscessus complex; isolate 8, M. abscessus complex, erm gene type Type 1 abscessus): > 8 µg/mL
MIC (M. abscessus complex; isolate 9, M. abscessus complex, erm gene type Type 1 abscessus): > 8 µg/mL
MIC (M. abscessus complex; isolate 10, M. abscessus complex, erm gene type Type 1 abscessus): > 8 µg/mL
MIC (M. abscessus complex; isolate 11, M. abscessus complex, erm gene type Type 6 abscessus): 4 µg/mL (≈ 8.74 µM)
MIC (M. abscessus complex; isolate 12, M. abscessus complex, erm gene type Type 6 abscessus): > 8 µg/mL
MIC (M. abscessus complex; isolate 13, M. abscessus complex, erm gene type Type 6 abscessus): > 8 µg/mL
MIC (M. abscessus complex; isolate 14, M. abscessus complex, erm gene type Type 6 abscessus): 4 µg/mL (≈ 8.74 µM)
MIC (M. abscessus complex; isolate 15, M. abscessus complex, erm gene type Type 7 abscessus): 8 µg/mL (≈ 17.5 µM)
MIC (M. abscessus complex; isolate 16, M. abscessus complex, erm gene type Type 7 abscessus): > 8 µg/mL
MIC (M. abscessus complex; isolate 17, M. abscessus complex, erm gene type Type 8 abscessus): 4 µg/mL (≈ 8.74 µM)
MIC50 ([1]; read-out: MIC50): 8 µg/mL (≈ 17.5 µM)
MIC90 ([1]; read-out: MIC90): > 8 µg/mL

CN(C)[C@@H]1C(=O)C(C(N)=O)=C(O)[C@@]2(O)C(=O)C3=C(O)c4c(O)cccc4[C@@](C)(O)[C@H]3C[C@@H]12 [tetracycline]
in vitro activity (in words) (M. abscessus): very low activity
